Data as given in PMC7575536, “Synthesis of an acyl-acyl carrier protein synthetase inhibitor to study fatty acid recycling” (Scientific Reports, 2020).
Structures can show the parent of a compound that is named as a salt.

Target: T1, VhAasS (Vibrio harveyi, UniProt Q00IB3)
T1 construct: gene aasS; His6-tagged, expressed in E. coli BL21[DE3], Ni-NTA purified; tag removal not mentioned
T1 sequence (Q00IB3 1-533): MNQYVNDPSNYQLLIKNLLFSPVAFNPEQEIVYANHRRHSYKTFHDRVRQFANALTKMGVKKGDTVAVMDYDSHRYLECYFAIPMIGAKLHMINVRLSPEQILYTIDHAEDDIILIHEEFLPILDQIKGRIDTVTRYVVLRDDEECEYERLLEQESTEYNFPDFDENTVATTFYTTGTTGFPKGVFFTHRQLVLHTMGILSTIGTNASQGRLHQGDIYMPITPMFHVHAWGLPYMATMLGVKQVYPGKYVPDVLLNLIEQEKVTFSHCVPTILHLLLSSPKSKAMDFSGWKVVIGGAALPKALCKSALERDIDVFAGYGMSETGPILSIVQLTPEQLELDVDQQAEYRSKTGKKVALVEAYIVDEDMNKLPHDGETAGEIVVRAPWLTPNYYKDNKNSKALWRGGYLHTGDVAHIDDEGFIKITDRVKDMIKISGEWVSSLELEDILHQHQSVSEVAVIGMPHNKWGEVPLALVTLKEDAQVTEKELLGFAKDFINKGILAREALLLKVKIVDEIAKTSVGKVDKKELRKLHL
Assay: urea-PAGE of acyl-ACP loading, ImageJ densitometry
Assay type: biochemical
Conditions: decanoic acid 1 mM, ATP 10 mM, MgCl2 12.5 mM, TCEP 2.5 mM; holo-EcACP or holo-VcACP 30 µM; enzyme 0.5 µM; pH 7.5, 37 °C, 24 h

CCCCCCCCCC(=O)NS(=O)(=O)OC[C@H]1O[C@@H](n2cnc3c(N)ncnc32)[C@H](O)[C@@H]1O [compound 7, 5′-O-(N-decanylsulfamoyl)adenosine mono sodium salt]
% inhibition at 1 mM: In the presence of C10-AMS, VhAasS is completely inhibited from loading decanoic acid
